Data on 17 molecules can be found in patent US20260092061A1, “COMPOUNDS FOR TARGETED PROTEIN DEGRADATION” (Amphista Therapeutics Limited, priority 2022, published 2026).

This experiment deals with T1, BRD9 (Homo sapiens, UniProt Q9H8M2).
T1 sequence (Q9H8M2 1-597): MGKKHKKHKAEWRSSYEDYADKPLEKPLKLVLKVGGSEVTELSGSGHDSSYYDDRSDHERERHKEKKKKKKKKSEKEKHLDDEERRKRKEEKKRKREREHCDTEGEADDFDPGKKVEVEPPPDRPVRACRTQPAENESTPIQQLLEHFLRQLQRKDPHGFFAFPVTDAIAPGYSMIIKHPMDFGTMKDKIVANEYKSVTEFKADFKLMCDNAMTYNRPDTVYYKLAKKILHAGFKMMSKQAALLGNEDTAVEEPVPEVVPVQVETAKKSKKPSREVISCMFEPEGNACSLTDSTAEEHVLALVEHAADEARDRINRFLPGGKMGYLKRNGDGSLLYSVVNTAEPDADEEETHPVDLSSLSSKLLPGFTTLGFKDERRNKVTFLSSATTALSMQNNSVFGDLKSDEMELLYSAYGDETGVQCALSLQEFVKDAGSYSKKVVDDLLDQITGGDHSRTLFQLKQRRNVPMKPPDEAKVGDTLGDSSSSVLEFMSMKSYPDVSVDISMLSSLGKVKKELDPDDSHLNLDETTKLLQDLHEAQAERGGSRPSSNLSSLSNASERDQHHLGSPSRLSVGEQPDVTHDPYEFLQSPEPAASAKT
Description: Degradation of BRD9 (IF), immunofluorescence in MV4-11 cells, 24 hours (Assay Protocol 2). Particulars: BRD9 degradation; for DC50: Assay protocol 2, read-out: DC50; for Dmax: MV4-11, Assay protocol 2, read-out: Dmax. It counts as cell-based. The arrangement: A suspension of MV4-11 cells (ATCC CRL-9591) was prepared; host or cells: MV4-11. The procedure, abridged:
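% BRD9 remaining, scaled between DMSO (high) and 100 nM CFT-8634 (low) control wells, derives from mean Alexa 647 contrast in central nuclei by high-content imaging. MV4-11 cells had 24 h compound exposure at 37° C. before PFA fixation, Triton permeabilisation and anti-BRD9 E4Q3F immunostaining.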

The structures appear in SMILES notation.

As to `COc1cc(-c2cn(C)c(=O)c(C)c2C)ccc1OC1CCN(Cc2cccc3c2CCN(C(=O)/C(C#N)=C/C(C)(C)C)C3C(C)C)CC1` (mixture of isomers) [Compound C32, (E/Z)-2-(1-isopropyl-5-((4-(2-methoxy-4-(1,4,5-trimethyl-6-oxo-1,6-dihydropyridin-3-yl)phenoxy)piperidin-1-yl)methyl)-1,2,3,4-tetrahydroisoquinoline-2-carbonyl)-4,4-dimethylpent-2-enenitrile], the DC50 was in the range of 0.025 to 1 µM and the Dmax was in the range of 70 to 75%.

As to `COc1cc(-c2cn(C)c(=O)c(C)c2C)cc(OC)c1CN1CCN(C(=O)c2cccc3c2CCN(C(=O)/C(C#N)=C/C(C)(C)C)C3C)C2(CC2)C1` (mixture of isomers) [Compound C43, (E/Z)-2-(5-(7-(2,6-dimethoxy-4-(1,4,5-trimethyl-6-oxo-1,6-dihydropyridin-3-yl)benzyl)-4,7-diazaspiro[2.5]octane-4-carbonyl)-1-methyl-1,2,3,4-tetrahydroisoquinoline-2-carbonyl)-4,4-dimethylpent-2-enenitrile], the DC50 lay in the range of 0.025 to 1 µM and the Dmax is > 75%.

As for `COc1cc(-c2cn(C)c(=O)c(C)c2C)cc(OC)c1CN1CCC2(CC1)CN(c1cccc3c1CCN(C(=O)/C(C#N)=C/C(C)(C)C)[C@@H]3C)C2` (mixture of isomers) [Compound C45, (E/Z)-2-(5-(7-(2,6-dimethoxy-4-(1,4,5-trimethyl-6-oxo-1,6-dihydropyridin-3-yl)benzyl)-2,7-diazaspiro[3.5]nonan-2-yl)-1-methyl-1,2,3,4-tetrahydroisoquinoline-2-carbonyl)-4,4-dimethylpent-2-enenitrile], the half-maximal degradation concentration (DC50) is 0.01 to 0.025 µM and the Dmax lay in the range of 40 to 70%.

For `COc1cc(-c2cn(C)c(=O)c(C)c2C)cc(OC)c1CN1CCC2(CC1)CCN(c1cccc3c1CCN(C(=O)/C(C#N)=C/C(C)(C)CF)[C@@H]3C)C2` (mixture of isomers) [Compound C48, (E/Z)-2-(5-(8-(2,6-dimethoxy-4-(1,4,5-trimethyl-4-oxo-1,6-dihydropyridin-3-yl)benzyl)-2,8-diazaspiro[4.5]decan-2-yl)-1-methyl-1,2,3,4-tetrahydroisoquinoline-2-carbonyl)-5-fluoro-4,4-dimethylpent-2-enenitrile], the DC50 lay within 0.00125 to 0.01 µM and the greatest degradation seen (Dmax) is > 75%.

With `COc1cc(-c2cn(C)c(=O)c(C)c2C)cc(OC)c1CN1CCC(N(C)c2cccc3c2CCN(C(=O)/C(C#N)=C/C(C)(C)C)C3C)C(F)(F)C1` (mixture of isomers) [Compound C57], the DC50 is 0.025 to 1 µM and the maximal degradation (Dmax) fell in the range of 40 to 70%.

Take `COc1cc(-c2cn(C)c(=O)c(C)c2C)cc(OC)c1CN1CCCN(c2ccc3c(c2)[C@H](C)N(C(=O)/C(C#N)=C/C(C)(C)CF)CC3)CC1` (mixture of isomers) [Compound C68, (E/Z)-2-(7-(4-(2,6-dimethoxy-4-(1,4,5-trimethyl-6-oxo-1,6-dihydropyridin-3-yl)benzyl)-1,4-diazepan-1-yl)-1-methyl-1,2,3,4-tetrahydroisoquinoline-2-carbonyl)-5-fluoro-4,4-dimethylpent-2-enenitrile]: the DC50 lay within 0.025 to 1 µM and the Dmax lay in the range of 40 to 70%.

In the case of `COc1cc(-c2cn(C)c(=O)c(C)c2C)cc(OC)c1CN1CCCN(c2ccc3c(c2)[C@@H](C)N(C(=O)/C(C#N)=C/C(C)(C)CF)CC3)CC1` (mixture of isomers) [Compound C69, (E/Z)-2-(7-(4-(2,6-dimethoxy-4-(1,4,5-trimethyl-6-oxo-1,6-dihydropyridin-3-yl)benzyl)-1,4-diazepan-1-yl)-1-methyl-1,2,3,4-tetrahydroisoquinoline-2-carbonyl)-5-fluoro-4,4-dimethylpent-2-enenitrile], the 50% degradation concentration (DC50) lay within 0.01 to 0.025 µM and the Dmax fell in the range of 40 to 70%.

Regarding `COc1cc(-c2cn(C)c(=O)c(C)c2C)ccc1OC1CCN(Cc2cccc3c2CCN(C(=O)/C(C#N)=C/C(C)(C)C)C3C)C2(CC2)C1` (mixture of isomers) [Compound C72, (E/Z)-2-(5-((7-(2-methoxy-4-(1,4,5-trimethyl-6-oxo-1,6-dihydropyridin-3-yl)phenoxy)-4-azaspiro[2.5]octan-4-yl)methyl)-1-methyl-1,2,3,4-tetrahydroisoquinoline-2-carbonyl)-4,4-dimethylpent-2-enenitrile], the DC50 fell in the range of 0.025 to 1 µM and the Dmax is > 75%.

For `COc1cc(-c2cn(C)c(=O)c(C)c2C)ccc1CC1CCN(Cc2cccc3c2CCN(C(=O)/C(C#N)=C/C(C)(C)C)C3C)C(C)(C)C1` (mixture of isomers) [Compound C74], the DC50 fell in the range of 0.025 to 1 µM and the Dmax was > 75%.

On to `COc1cc(-c2cn(C)c(=O)c(C)c2C)cc(OC)c1CN1CCN(S(=O)(=O)c2cccc3c2CCN(C(=O)/C(C#N)=C\C(C)(C)C)C3C)CC1` (mixture of isomers) [Compound C75, (E/Z)-2-(5-((4-(2,6-dimethoxy-4-(1,4,5-trimethyl-6-oxo-1,6-dihydropyridin-3-yl)benzyl)piperazin-1-yl)sulfonyl)-1-methyl-1,2,3,4-tetrahydroisoquinoline-2-carbonyl)-4,4-dimethylpent-2-enenitrile], for which the 50% degradation concentration (DC50) was 0.025 to 1 µM and the maximal degradation (Dmax) was > 75%.

`COc1cc(-c2cn(C)c(=O)c(C)c2C)cc(OC)c1CN1CCC(Cc2cccc3c2CCN(C(=O)/C(C#N)=C/C(C)(C)CF)C3C(C)C)CC1` (mixture of isomers) [Compound C80]: the half-maximal degradation concentration (DC50) was in the range of 0.00125 to 0.01 µM and the Dmax was in the range of 70 to 75%.

Regarding `COc1cc(-c2cn(C)c(=O)c(C)c2C)cc(OC)c1CN1CCCN(Cc2cccc3c2CCN(C(=O)/C(C#N)=C/C(C)(C)CF)[C@@H]3C(C)C)CC1` (mixture of isomers) [Compound C84, (E/Z)-2-(5-((4-(2,6-dimethoxy-4-(1,4,5-trimethyl-6-oxo-1,6-dihydropyridin-3-yl)benzyl)-1,4-diazepan-1-yl)methyl)-1-isopropyl-1,2,3,4-tetrahydroisoquinoline-2-carbonyl)-5-fluoro-4-dimethylpent-2-enenitrile], the half-maximal degradation concentration (DC50) lay within 0.00125 to 0.01 µM and the Dmax is > 75%.

In the case of `COc1cc(-c2cn(C)c(=O)c(C)c2C)cc(OC)c1CN(C)Cc1cccc2c1CCN(C(=O)/C(C#N)=C/C(C)(C)C)C2C(C)C` (mixture of isomers) [Compound C95, (E/Z)-2-(5-(((2,6-dimethoxy-4-(1,4,5-trimethyl-6-oxo-1,6-dihydropyridin-3-yl)benzyl)(methyl)amino)methyl)-1-isopropyl-1,2,3,4-tetrahydroisoquinoline-2-carbonyl)-4,4-dimethylpent-2-enenitrile], the DC50 was 0.01 to 0.025 µM and the Dmax lay in the range of 40 to 70%.

Turning to `COc1cc(-c2cn(C)c(=O)c(C)c2C)cc(OC)c1CN1C[C@H](C)N(Cc2cccc3c2CCN(C(=O)/C(C#N)=C/C(C)(C)CF)C3C(C)C)C[C@H]1C` (mixture of isomers) [Compound C98, (E/Z)-2-(5-(((2S,5R)-4-(2,6-dimethoxy-4-(1,4,5-trimethyl-6-oxo-1,6-dihydropyridin-3-yl)benzyl)-2,5-dimethylpiperazin-1-yl)methyl)-1-isopropyl-1,2,3,4-tetrahydroisoquinoline-2-carbonyl)-5-fluoro-4,4-dimethylpent-2-enenitrile], the half-maximal degradation concentration (DC50) lay within 0.01 to 0.025 µM and the greatest degradation seen (Dmax) was > 75%.

Consider `COc1cc(-c2cn(C)c(=O)c(C)c2C)cc(OC)c1CN1CCN(Cc2ccc3c(c2)C(C)N(C(=O)/C(C#N)=C/C(C)(C)C)CC3)C2(CC2)C1` (mixture of isomers) [Compound C106, (E/Z)-2-(7-((7-(2,6-dimethoxy-4-(1,4,5-trimethyl-6-oxo-1,6-dihydropyridin-3-yl)benzyl)-4,7-diazaspiro[2.5]octan-4-yl)methyl)-1-methyl-1,2,3,4-tetrahydroisoquinoline-2-carbonyl)-4,4-dimethylpent-2-enenitrile], for which the DC50 is < 0.00125 µM and the greatest degradation seen (Dmax) is > 75%.

Take `COc1cc(-c2cn(C)c(=O)c(C)c2C)cc(OC)c1CN1CCN(Cc2cccc3c2CCN(C(=O)/C(C#N)=C/C(C)(C)C)[C@H]3C)C2(CC2)C1` (single isomer, unassigned) [Compound B146, (E/Z)-2-(5-((7-(2,6-dimethoxy-4-(1,4,5-trimethyl-6-oxo-1,6-dihydropyridin-3-yl)benzyl)-4,7-diazaspiro[2.5]octan-4-yl)methyl)-1-methyl-1,2,3,4-tetrahydroisoquinoline-2-carbonyl)-4,4-dimethylpent-2-enenitrile]: the half-maximal degradation concentration (DC50) is < 0.00125 µM and the maximal degradation (Dmax) was > 75%.

For `COc1cc(-c2cn(C)c(=O)c(C)c2C)cc(OC)c1CN1CCCN(Cc2cccc3c2CCN(C(=O)/C(C#N)=C/C(C)(C)C)[C@@H]3C)CC1` (single isomer, unassigned) [Compound B192, (E/Z)-2-(5-((4-(2,6-dimethoxy-4-(1,4,5-trimethyl-6-oxo-1,6-dihydropyridin-3-yl)benzyl)-1,4-diazepan-1-yl)methyl)-1-methyl-1,2,3,4-tetrahydroisoquinoline-2-carbonyl)-4,4-dimethylpent-2-enenitrile], the 50% degradation concentration (DC50) was 0.00125 to 0.01 µM and the maximal degradation (Dmax) was > 75%.
